Results published in the RepoRT retention time repository.

Experiment: RP, Waters ACQUITY UPLC HSS T3, 0.1 mL/min; A: water + 0.01% formic acid; B: acetonitrile + 0.01% formic acid; gradient (min/%B) 0/10 38/45 45/45 55/0 60/0
Conditions: stereoisomer not certain

SMILES	LC retention time
COC(=O)c1ccc(O)cc1 [Methylparaben]	10 min
CON(C)C(=O)Nc1ccc(Br)cc1 [Metobromuron]	24.5 min
CCc1cccc(C)c1N(C(=O)CCl)C(C)COC (configuration not stated) [Metolachlor]	26.7 min
COc1cc(OC)n2nc(S(=O)(=O)Nc3c(Cl)ccc(C)c3Cl)nc2n1 [Metosulam]	24.8 min
CSc1nnc(C(C)(C)C)c(=O)n1N [Metribuzine]	15.6 min
COC(=O)c1ccccc1S(=O)(=O)NC(=O)Nc1nc(C)nc(OC)n1 [Metsulfuron-methyl]	19.4 min
CN1CCC23c4c5ccc(O)c4OC2C(O)C=CC3C1C5 (configuration not stated) [Morphine]	4.26 min
COc1cc(OC)nc(NC(=O)NS(=O)(=O)c2ncccc2C(=O)N(C)C)n1 [Nicosulfuron]	15.2 min
CN1CCCC1c1ccc[n+](C2OC(C(=O)[O-])C(O)C(O)C2O)c1 (configuration not stated) [Nicotine Glucuronide]	1.3 min
CN1CCCC1c1cccnc1 (configuration not stated) [Nicotine]	3.37 min
CCCN(CCC)c1c([N+](=O)[O-])cc(S(N)(=O)=O)cc1[N+](=O)[O-] [Oryzalin]	41.2 min
O=C1Nc2ccc(Cl)cc2C(c2ccccc2)=NC1O (configuration not stated) [Oxazepam]	20.6 min
COc1ccc(C(=O)c2ccccc2)c(O)c1 [Oxybenzone]	40.6 min
CC(C)(C)C(O)C(Cc1ccc(Cl)cc1)n1cncn1 (configuration not stated) [Paclobutrazole]	31.5 min
CC(=O)Nc1ccc(O)cc1 [Paracetamol]	4.98 min
Fc1ccc(C2CCNCC2COc2ccc3c(c2)OCO3)cc1 (configuration not stated) [Paroxetine]	18.3 min
O=C(Nc1ccccc1)N(Cc1ccc(Cl)cc1)C1CCCC1 [Pencycuron]	43.7 min
O=C(C=CC=Cc1ccc2c(c1)OCO2)N1CCCCC1 [Piperine]	36.4 min
CC(C)(C)C(=O)OCOC(=O)C1N2C(=O)C(N=CN3CCCCCC3)C2SC1(C)C (configuration not stated) [Pivmecillinam]	26.4 min
CCC(C)C(=O)OC1CC(O)C=C2C=CC(C)C(CCC(O)CC(O)CC(=O)O)C21 (configuration not stated) [Pravastatin]	20.5 min
CC(=O)C1CCC2C3CC=C4CC(O)CCC4(C)C3CCC12C (configuration not stated) [Pregnenolone]	41.8 min

SMILES	LC retention time
CCCN(CCOc1c(Cl)cc(Cl)cc1Cl)C(=O)n1ccnc1 [Prochloraz]	38.7 min
CC(=O)C1(O)CCC2C3CCC4=CC(=O)CCC4(C)C3CCC21C (configuration not stated) [Progesterone-17-hydroxy]	33.9 min
CC(=O)C1CCC2C3CCC4=CC(=O)CCC4(C)C3CCC12C (configuration not stated) [Progesterone]	42.1 min
CC(C)N(C(=O)CCl)c1ccccc1 [Propachlore]	25.8 min
CCCOC(=O)NCCCN(C)C [Propamocarb]	5.59 min
CCCC1COC(Cn2cncn2)(c2ccc(Cl)cc2Cl)O1 (configuration not stated) [Propiconazole]	41.7 min
CCCOc1nn(C(=O)NS(=O)(=O)c2ccccc2C(=O)OC)c(=O)n1C [Propoxycarbazone]	22.1 min
CCCOC(=O)c1ccc(O)cc1 [Propylparaben]	22 min
C#CC(C)(C)NC(=O)c1cc(Cl)cc(Cl)c1 [Propyzamide]	35.6 min
CCCCCC(O)C=CC1C(=O)CC(O)C1CC=CCCCC(=O)O (configuration not stated) [Prostaglandin D2]	27.6 min
CCCCCC(O)C=CC1C(O)CC(=O)C1CC=CCCCC(=O)O (configuration not stated) [Prostaglandin E2]	26.5 min
CCCCCC(O)C=CC1C(O)CC(O)C1CC=CCCCC(=O)O (configuration not stated) [Prostaglandin F2a]	25.6 min
COc1nc(C)nc(NC(=O)NS(=O)(=O)c2ccccc2CCC(F)(F)F)n1 [Prosulfuron]	34.5 min
CC1=NNC(=O)N(N=Cc2cccnc2)C1 [Pymetrozine]	26.7 min
COC(=O)N(OC)c1ccccc1COc1ccn(-c2ccc(Cl)cc2)n1 [Pyraclostrobine]	43.5 min
Cc1cc(C)nc(Nc2ccccc2)n1 [Pyrimethanil]	22.2 min
COc1cc(OC)n2nc(NS(=O)(=O)c3c(C(F)(F)F)ccnc3OC)nc2n1 [Pyroxsulam]	20.3 min
Cc1cnc2c(C(=O)O)c(Cl)ccc2c1 [Quinmerac]	8.87 min
O=C(O)c1ccccc1O [Salicylic acid]	8.4 min
CNC1CCC(c2ccc(Cl)c(Cl)c2)c2ccccc21 (configuration not stated) [Sertraline]	24.3 min
CCNc1nc(Cl)nc(NCC)n1 [Simazine]	14.5 min

SMILES	LC retention time
CC1CCC2C(C)C3C(CC4C5CC=C6CC(O)CCC6(C)C5CCC43C)N2C1 (configuration not stated) [Solanidine]	24.5 min
CS(=O)(=O)c1ccc(C(=O)C2C(=O)CCCC2=O)c(Cl)c1 [Sulcotrione]	18.6 min
CC(C)(C)C(O)(CCc1ccc(Cl)cc1)Cn1cncn1 (configuration not stated) [Tebuconazole]	39.5 min
CC(C)N(Cc1ccccc1)C(=O)C(C)(C)C [Tebutame]	39 min
CCNc1nc(Cl)nc(NC(C)(C)C)n1 [Terbuthylazine]	30.6 min
CCNc1nc(NC(C)(C)C)nc(SC)n1 [Terbutryne]	28 min
CCNc1nc(NC(C)(C)C)[nH]c(=O)n1 [Tertbutylazine-2-hydroxy]	8.38 min
CC12CCC(=O)C=C1CCC1C2CCC2(C)C(O)CCC12 (configuration not stated) [Testosterone]	28.9 min
N#CN=C1SCCN1Cc1ccc(Cl)nc1 [Thiacloprid]	12.2 min
CN1COCN(Cc2cnc(Cl)s2)C1=N[N+](=O)[O-] [Thiamethoxam]	6.97 min
CC(C)(C)C(O)C(Oc1ccc(Cl)cc1)n1cncn1 (configuration not stated) [Triadimenol]	31.6 min
[O-][n+]1nc(-n2ccnc2)nc2ccc(Cl)cc21 [Triazoxide]	16 min
O=C(O)COc1nc(Cl)c(Cl)cc1Cl [Triclopyr]	25 min
Oc1cc(Cl)ccc1Oc1ccc(Cl)cc1Cl [Triclosan]	43.8 min
COC(=O)c1cccc(C)c1S(=O)(=O)NC(=O)Nc1nc(OCC(F)(F)F)nc(N(C)C)n1 [Triflusulfuron-methyl]	39 min
CCOC(=O)C1CC(=O)C(=C(O)C2CC2)C(=O)C1 (configuration not stated) [Trinexapac-ethyl]	26.5 min
CC1(C)CCC(=Cc2ccc(Cl)cc2)C1(O)Cn1cncn1 (configuration not stated) [Triticonazole]	33.8 min
COc1nc(NC(=O)NS(=O)(=O)c2ccccc2C(F)(F)F)nc(C(F)(F)F)n1 [Tritosulfuron]	35.9 min
NC(Cc1c[nH]c2ccccc12)C(=O)O (configuration not stated) [Tryptophan]	5.4 min
COc1ccc(C(CN(C)C)C2(O)CCCCC2)cc1 (configuration not stated) [Venlafaxine]	9.84 min
